Reference: the supplement of paper PMC10307832

Experiments:
Experiment in all cases: relative viability (nuclei count vs DMSO), 5 days (fraction); higher = more cells survive
[1] = compound: C1CSC2=C(C(=O)N1)SC3=C2C=C(C=C3)O [kb NB 142-70] + Cc1cc(Nc2cc(N3CCN(C)CC3)nc(Sc3ccc(NC(=O)C4CC4)cc3)n2)n[nH]1 [Tozasertib] (partner 0.1 µM)
Procedure, shortened: (§1)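 For relative viability, nuclei counts in treated wells were divided by those in vehicle wells. Lung cancer cell lines had been pin-tool dosed in 1536-well plates the day after seeding and cultured for 5 days, then fixed and stained in one step (final 0.05% Triton X-100, 1% formaldehyde, 1 ug/ml Hoechst) and imaged at 4×. Doses were one drug alone or a fixed anchor-drug dose plus five library-drug doses (not always all listed) in √10 steps, and values are duplicate-plate medians.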

[2] = compound: C1CSC2=C(C(=O)N1)SC3=C2C=C(C=C3)O [kb NB 142-70] + C[C@]1(O)C[C@@H](c2nc(-c3ccc4ccc(-c5ccccc5)nc4c3)c3c(N)nccn32)C1 [Linsitinib] (partner 1 µM)
Procedure, shortened: as §1

[3] = compound: NCC(=O)Nc1ccc(-n2nc(C(F)(F)F)cc2-c2ccc3c(ccc4ccccc43)c2)cc1 + Nc1nc2[nH]cc(CCc3ccc(C(=O)N[C@@H](CCC(=O)O)C(=O)O)cc3)c2c(=O)[nH]1 [Pemetrexed] (partner 0.2 µM)
Procedure, shortened: as §1

[4] = compound: NCC(=O)Nc1ccc(-n2nc(C(F)(F)F)cc2-c2ccc3c(ccc4ccccc43)c2)cc1 + CC1(C)CCC(c2ccc(Cl)cc2)=C(CN2CCN(c3ccc(C(=O)NS(=O)(=O)c4ccc(N[C@H](CCN5CCOCC5)CSc5ccccc5)c(S(=O)(=O)C(F)(F)F)c4)cc3)CC2)C1 [Navitoclax] (partner 0.5 µM)
Procedure, shortened: as §1

Cell Line	relative viability ([1]; first compound 0.1 µM)	relative viability ([1]; first compound 1 µM)	relative viability ([1]; first compound 3.162 µM)	relative viability ([2]; first compound 0.1 µM)	relative viability ([2]; first compound 1 µM)	relative viability ([2]; first compound 3.162 µM)	relative viability ([3]; first compound 0.02 µM)	relative viability ([3]; first compound 0.06325 µM)	relative viability ([3]; first compound 0.2 µM)	relative viability ([3]; first compound 0.6325 µM)	relative viability ([3]; first compound 2 µM)	relative viability ([4]; first compound 0.02 µM)	relative viability ([4]; first compound 0.06325 µM)	relative viability ([4]; first compound 0.2 µM)	relative viability ([4]; first compound 0.6325 µM)	relative viability ([4]; first compound 2 µM)
NCI-H1993	0.604	0.648	0.536	0.792	0.715	0.67	0.579	0.504	0.59	0.628	0.599	0.945	1.06	1.02	1	0.956
RERF-LC-KJ	0.445	0.486	0.445	0.918	0.957	0.923	0.493	0.402	0.462	0.447	0.466	1.04	1.24	1.08	0.715	0.842
NCI-H23	0.381	0.37	0.241	0.708	0.529	0.289	0.656	0.707	0.56	0.63	0.665	0.821	0.847	0.801	0.903	0.855
HCC-366	0.122	0.176	0.118	0.658	0.462	0.214	0.173	0.149	0.183	0.162	0.282	1.15	1.04	1.02	1.03	1.16
EMC-BAC-2	0.303	0.302	0.261	0.805	0.798	0.747	0.403	0.457	0.465	0.421	0.408	1.14	1.19	1.26	1.17	1.13
NCI-H2405	0.785	0.695	0.652	0.969	0.834	0.641	1.04	1.04	1.26	1.04	1.16	0.848	1	0.941	0.913	0.969
NCI-H1944	0.244	0.244	0.27	1.17	1.24	1.18	0.609	0.731	0.642	0.553	0.575	1.06	1.08	1.05	1.04	1.07
EPLC-272H	0.353	0.217	0.143	1.07	1.05	0.599	0.275	0.395	0.308	0.356	0.315	1.25	1.07	1.15	1	1.09
NCI-H1915	0.445	0.397	0.276	1.11	1.11	0.716	0.452	0.503	0.477	0.575	0.467	0.771	0.804	0.812	0.767	0.803
NCI-H596	0.804	0.881	0.749	1.13	1.02	0.837	0.521	0.455	0.548	0.494	0.441	0.593	0.968	1.04	1.1	0.841
NCI-H322M	0.464	0.519	0.45	0.89	1.03	0.938	0.562	0.617	0.535	0.643	0.668	1.18	1.18	1.34	1.18	1.1
NCI-H2228	0.254	0.217	0.146	0.525	0.872	0.629	0.375	0.354	0.377	0.358	0.398	1.14	1.16	0.918	0.976	0.809
NCI-H647	0.274	0.332	0.426	1.1	1.2	1.17	0.172	0.182	0.205	0.203	0.202	1.02	1.02	1.23	1.03	1.01
SK-MES-1	0.867	0.85	0.221	1.07	1.15	0.722	0.911	0.919	1.05	0.85	1.08	1.31	1.2	1.29	1.2	1.16
NCI-H2085	0.796	0.825	0.661	0.807	0.515	0.599	0.831	0.967	0.92	0.892	1.01	1.06	1.16	1.28	1.17	1.08
SW 1573	0.153	0.182	0.146	0.744	0.693	0.351	0.847	0.805	0.81	0.796	0.75	1.03	0.969	0.867	0.905	0.942

Cell Line	relative viability ([1]; first compound 0.1 µM)	relative viability ([1]; first compound 1 µM)	relative viability ([1]; first compound 3.162 µM)	relative viability ([2]; first compound 0.1 µM)	relative viability ([2]; first compound 1 µM)	relative viability ([2]; first compound 3.162 µM)	relative viability ([3]; first compound 0.02 µM)	relative viability ([3]; first compound 0.06325 µM)	relative viability ([3]; first compound 0.2 µM)	relative viability ([3]; first compound 0.6325 µM)	relative viability ([3]; first compound 2 µM)	relative viability ([4]; first compound 0.02 µM)	relative viability ([4]; first compound 0.06325 µM)	relative viability ([4]; first compound 0.2 µM)	relative viability ([4]; first compound 0.6325 µM)	relative viability ([4]; first compound 2 µM)
NCI-H441	0.663	0.581	0.302	0.656	0.457	0.356	0.253	0.279	0.273	0.259	0.243	0.521	0.577	0.654	0.627	0.539
LOU-NH91	0.599	0.557	0.338	0.911	0.882	0.612	0.356	0.393	0.375	0.389	0.34	0.74	0.755	0.722	0.673	0.804
NCI-H3122	0.366	0.459	0.165	1.03	1.01	0.924	0.194	0.208	0.204	0.187	0.241	1.04	1.01	1.03	1.01	0.984
NCI-H460	0.541	0.397	0.254	0.704	1	0.277	0.0659	0.064	0.0588	0.0727	0.0577	1.17	1.11	1.13	1.07	1.06
NCI-H1793	0.377	0.346	0.197	0.832	1.08	0.905	0.907	1.01	0.827	0.949	0.891	0.529	0.446	0.395	0.411	0.416
NCI-H1734	0.271	0.263	0.234	0.813	0.734	0.553	0.406	0.457	0.442	0.442	0.384	0.889	0.868	0.91	0.787	0.787
LXF-289	0.173	0.192	0.181	0.914	0.92	0.916	0.913	0.956	0.914	0.926	0.767	0.918	0.977	0.943	0.954	0.861
H3255	0.534	0.785	0.746	0.824	0.984	0.905	0.561	0.49	0.552	0.565	0.601	0.481	0.578	0.594	0.482	0.457
201T	0.875	0.974	1.03	1.04	1.05	1.02	0.321	0.32	0.326	0.301	0.311	1.26	1.18	1.24	1.25	1.22
NCI-H2126	0.805	0.858	0.823	0.702	0.729	0.681	0.667	0.714	0.736	0.724	0.69	0.866	0.865	0.851	0.876	0.852
HOP-62	0.314	0.315	0.245	0.996	0.906	0.945	0.334	0.29	0.3	0.275	0.314	1.06	1.01	0.996	0.91	1.08
CAL-12T	0.36	0.395	0.267	0.859	0.869	1.03	1.11	1.2	1.2	1.12	0.97	1.17	1.19	1.37	1.2	1.34
NCI-H520	0.45	0.517	0.37	0.874	0.972	0.641	0.676	0.716	0.761	0.661	0.623	0.979	1.17	1.34	1.05	1.08
NCI-H1755	0.627	0.492	0.63	1	0.991	1.06	0.69	0.509	0.453	0.394	0.434	1.03	1.04	1.03	1.03	0.991
NCI-H2023	0.367	0.358	0.276	0.698	0.673	0.396	0.226	0.249	0.256	0.224	0.239	1.05	1.12	1.01	1	1.01
NCI-H2009	0.75	0.649	0.48	1.26	1.26	0.955	1.03	1.01	1.08	1.05	1.04	1.12	1.15	1.27	1.11	1.13
